Read-outs that look alike come from different tables or passages of the source.
What was measured:
[1] = test system: recombinant forms of PKC-α, PKC-β, PKC-δ, PKCε, or PKC-θ; conditions: cited from earlier work
[2] = test system: PKC-λ/ι activity, BACE1 activity, Aβ1-40/42; conditions: LA1-5s neuronal cells, previously reported; cited from earlier work
BACE1 = BACE1 levels in LA1-5s neuronal cells treated with insulin; format: cell-based, human
Protocol: Values of BACE1 are Mean±SEM of 4 values. Asterisks indicate P<0.05 for comparison of designated group versus the untreated control group (ANOVA).
(§1) LA1-5s neuronal cells were originally obtained from non-catecholamine-producing neuroblastoma of a person and are commercially available from the European Collection of Authenticated Cell Cultures. Incubation conditions were as described.
(§2) As described, western analyses were conducted with rabbit antisera, using: anti-aPKC [recognizes a C-terminal sequence in all aPKCs (Santa Cruz Biotechnologies, Santa Cruz, CA, USA)]; anti-phospho-threonine (thr)-560/555-PKC-ζ/λ/ι [recognizes a phosphopeptide sequence present in all aPKCs and indicates activation (Invitrogen, Carlsbad, CA, USA)]; anti-phospho-serine (ser)-473-Akt [recognizes a phosphopeptide sequence at 60 kDa present in all Akt's-1/2/3 and indicates activation (Cell Signaling Technologies, Danvers, MA, USA)]; anti-4 kDa-AP1-40/42 (Cell Signaling Technologies, Danvers, MA, USA); anti-mouse-70 kDa-BACE1 and anti-human-70 kDa-BACE1 (ThermoFisher); and anti-phospho-threonine (thr)-231-tau (Gene Tex, Irvine, CA, USA). Samples from all experimental groups within each study were compared on the same blots and routinely checked with loading controls. All comparisons in histograms were made relative to the mean value of the basal control group, i.e., wild-type mice consuming standard low-fat mouse chow, untreated with insulin or aPKC inhibitors, and having normal levels of aPKCs and other cellular proteins.

[3] = test system: aPKC, Akt2, AMP-activated kinase (AMPK), FoxO1; conditions: isolated human hepatocytes; cited from earlier work
recombinant PKC-ι/λ [4] = target: T1, recombinant PKC-ι/λ (Homo sapiens, UniProt P41743); assay: Inhibition of recombinant PKC-ι/λ; format: biochemical; conditions: Example 2
T1 sequence (P41743 1-596): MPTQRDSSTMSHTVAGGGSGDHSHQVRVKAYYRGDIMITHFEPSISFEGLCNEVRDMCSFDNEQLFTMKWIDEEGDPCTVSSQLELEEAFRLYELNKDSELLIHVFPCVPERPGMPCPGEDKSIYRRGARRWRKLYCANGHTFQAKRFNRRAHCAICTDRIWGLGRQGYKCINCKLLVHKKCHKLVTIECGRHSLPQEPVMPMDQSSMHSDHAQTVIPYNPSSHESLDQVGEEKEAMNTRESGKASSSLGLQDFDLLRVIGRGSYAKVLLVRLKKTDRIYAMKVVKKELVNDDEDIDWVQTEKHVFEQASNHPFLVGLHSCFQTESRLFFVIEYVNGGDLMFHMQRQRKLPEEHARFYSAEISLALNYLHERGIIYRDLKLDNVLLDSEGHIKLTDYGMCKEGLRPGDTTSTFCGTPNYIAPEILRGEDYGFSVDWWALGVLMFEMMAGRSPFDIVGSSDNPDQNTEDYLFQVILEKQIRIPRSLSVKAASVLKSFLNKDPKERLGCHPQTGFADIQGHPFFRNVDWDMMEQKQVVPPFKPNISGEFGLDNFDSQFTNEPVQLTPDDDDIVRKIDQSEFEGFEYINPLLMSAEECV
Protocol: 1H-imidazole-4-carboxamide,-5-amino-1-[2,3-dihydroxy-4-[(hydroxyl)methyl]cyclopentyl-[1R-(1a,2b,3b,4a)] […] (ICAPP).
aPKC Inhibitors. We identified by HTS compounds that target the substrate-binding site of aPKCs and potently (IC50s10-30 nM) inhibit recombinant PIP3-dependent aPKCs, but not DAG-dependent PKCs. Three compounds have been studied in detail: (a) 1H-imidazole-4-carboxamide, 5-amino-1-[2,3-dihydroxy-4-[(phosphono-oxy)methyl]cyclopentyl-[1R-(1a,2b,3b,4a)] […] Thus, these agents can reduce brain aPKC activity, indirectly at lower doses by inhibiting liver aPKC and correcting hyperinsulinemia in insulin-resistant states, and, at higher doses, by acting directly on brain PKC-λ/ι.

NFκB = assay: Insulin-induced NFκB activity in LA1-5s neuronal cells; format: cell-based, human; conditions: 200 nM insulin, 24 hours; 1 μM ACPD, increasing concentrations of auranofin
From the text: (§3) Cell lysates were subjected to Western analyses for phosphorylated/activated forms of aPKC, NFκB and Akt. Representative blots of indicated proteins are shown in upper bands. […] Bargrams show Mean±SEM of 3-4 determinations. Asterisks indicate P<0.05; comparison of designated group versus the uninhibited, insulin-treated group (ANOVA).
as §1
as §2, with “Samples from all experimental groups within each study were compared on the same blots and routinely checked with loading controls. All comparisons in histograms were made relative to the mean value of the basal control group, i.e., wild-type mice consuming standard low-fat mouse chow, untreated with insulin or aPKC inhibitors, and having normal levels of aPKCs and other cellular proteins.” left out

recombinant PKC-ι/λ [5] = target: T1, recombinant PKC-ι/λ; conditions: cited from earlier work
Akt = assay: Insulin-induced Akt activation in LA1-5s neuronal cells; format: cell-based, human; conditions: 200 nM insulin, 24 hours
From the text: as §3, §1
as §2, with “Samples from all experimental groups within each study were compared on the same blots and routinely checked with loading controls. All comparisons in histograms were made relative to the mean value of the basal control group, i.e., wild-type mice consuming standard low-fat mouse chow, untreated with insulin or aPKC inhibitors, and having normal levels of aPKCs and other cellular proteins.” left out

recombinant PKC-ζ = target: T2, recombinant PKC-ζ (Homo sapiens, UniProt Q05513); conditions: cited from earlier work
T2 sequence (Q05513 1-592): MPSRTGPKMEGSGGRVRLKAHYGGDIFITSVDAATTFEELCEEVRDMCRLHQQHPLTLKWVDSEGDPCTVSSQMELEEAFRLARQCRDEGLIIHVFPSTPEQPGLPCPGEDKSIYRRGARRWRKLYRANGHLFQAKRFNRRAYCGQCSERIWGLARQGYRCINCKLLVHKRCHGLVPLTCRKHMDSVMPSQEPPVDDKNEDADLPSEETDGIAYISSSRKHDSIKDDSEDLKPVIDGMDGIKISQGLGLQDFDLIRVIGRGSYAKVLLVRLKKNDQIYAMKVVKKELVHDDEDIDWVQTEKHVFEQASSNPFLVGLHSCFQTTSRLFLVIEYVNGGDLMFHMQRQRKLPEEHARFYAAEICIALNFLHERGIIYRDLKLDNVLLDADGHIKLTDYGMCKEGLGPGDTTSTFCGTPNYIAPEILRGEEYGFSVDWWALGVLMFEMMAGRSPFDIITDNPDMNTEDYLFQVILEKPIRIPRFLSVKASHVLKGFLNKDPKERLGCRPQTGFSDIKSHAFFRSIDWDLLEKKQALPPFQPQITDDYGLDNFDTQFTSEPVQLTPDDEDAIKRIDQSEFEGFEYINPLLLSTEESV

aPKC = conditions: cited from earlier work
PKCι and PKCζ = conditions: cited from earlier work

NC(=O)c1ncn([C@@H]2C[C@H](COP(=O)(O)O)[C@@H](O)[C@H]2O)c1N [ICAPP]
effect on recombinant PKC-α, PKC-β, PKC-δ, PKCε, PKC-θ [1]: no effect | insulin-induced increases in PKC-λ/ι activity, BACE1 activity and production of Aβ1-40/42 [2]: blocked | insulin-induced increase in BACE1 levels (BACE1; 200 nM insulin, 24 hours, increasing concentrations of ICAPP): diminished | basal/resting levels of BACE1 (BACE1; at higher levels of inhibitor): reduced basal/resting levels of BACE1 | FoxO1 phosphorylation/inactivation [3]: increase FoxO1 phosphorylation/inactivation | inhibition of aPKC, Akt2, AMPK [3]: inhibit aPKC but not Akt2 or AMP-activated kinase (AMPK) | IC50 (recombinant PKC-ι/λ [4]): 0.001 to 0.01 µM | insulin-induced increase in NFκB activity (NFκB): diminished | IC50 (recombinant PKC-ι/λ [5]): 0.001 to 0.01 µM | insulin-induced Akt activation (Akt): not Akt activation | IC50 (recombinant PKC-ζ): 0.2 to 0.5 µM | inhibition of brain aPKC (aPKC; at higher doses): inhibit brain aPKC | aPKC inhibition in liver, muscle, adipose tissue (aPKC; intact mice, employed doses): inhibit aPKC in liver, but not in muscle or adipose tissue

O=C(O)CC([S-])C(=O)O.[Au+] (centres unmarked) [aurothiomalate]
insulin activation of aPKC (PB1 site) (PKCι and PKCζ): inhibit insulin activation of aPKC

Source: patent publication US20250032530A1, “USE OF AURANOFIN AS AN INHIBITOR OF ATYPICAL PROTEIN KINASE C FOR TREATMENT OF NEURODEGENERATIVE DISORDERS” (UNIVERSITY OF SOUTH FLORIDA, priority 2021, published 2025)
